We go through two molecules from publication PMC10471714, “G6PDi-1 is a Potent Inhibitor of G6PDH and of Pentose Phosphate pathway-dependent Metabolic Processes in Cultured Primary Astrocytes” (Neurochemical Research, 2023).

In assay [1] the target is T1, G6PDH (glucose-6-phosphate dehydrogenase) (Rattus norvegicus, UniProt P05370).
T1 construct: gene G6pdx; native cytosolic enzyme in soluble lysate supernatant of primary astrocyte-rich cultures; not purified
The assay is described as follows: NADPH absorbance at […] nm in astrocyte lysate. The assay is classed as biochemical. The note with it: 3.3 mM G6P, 0.2 mM NADP+, 6.3 mM MgCl2, 5 mM maleimide, pH 7.5, room temperature; read-out: half-maximal inhibition.

Assay [2] has as its target T2, 6PGDH (6-phosphogluconate dehydrogenase) (Rattus norvegicus, UniProt P85968).
T2 construct: gene Pgd; native cytosolic enzyme in soluble lysate supernatant of primary astrocyte-rich cultures; not purified
T2 sequence (P85968 2-483): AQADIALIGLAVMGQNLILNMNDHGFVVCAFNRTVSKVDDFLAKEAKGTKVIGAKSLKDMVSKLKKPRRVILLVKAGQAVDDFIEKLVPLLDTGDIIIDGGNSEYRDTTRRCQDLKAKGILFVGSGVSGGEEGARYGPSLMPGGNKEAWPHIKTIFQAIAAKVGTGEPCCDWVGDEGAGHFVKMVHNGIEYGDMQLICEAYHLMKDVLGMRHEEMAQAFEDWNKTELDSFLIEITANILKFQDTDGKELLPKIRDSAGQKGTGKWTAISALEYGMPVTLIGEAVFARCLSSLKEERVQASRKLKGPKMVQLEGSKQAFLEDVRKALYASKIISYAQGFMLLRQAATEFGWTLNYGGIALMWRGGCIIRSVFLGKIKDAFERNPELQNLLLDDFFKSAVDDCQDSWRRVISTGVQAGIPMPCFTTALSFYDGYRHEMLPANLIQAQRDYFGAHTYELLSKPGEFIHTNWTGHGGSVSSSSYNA
In words: NADPH absorbance at […] nm in astrocyte lysate. It is filed as biochemical.

Structures are written as SMILES.

T1 sequence (P05370 2-515): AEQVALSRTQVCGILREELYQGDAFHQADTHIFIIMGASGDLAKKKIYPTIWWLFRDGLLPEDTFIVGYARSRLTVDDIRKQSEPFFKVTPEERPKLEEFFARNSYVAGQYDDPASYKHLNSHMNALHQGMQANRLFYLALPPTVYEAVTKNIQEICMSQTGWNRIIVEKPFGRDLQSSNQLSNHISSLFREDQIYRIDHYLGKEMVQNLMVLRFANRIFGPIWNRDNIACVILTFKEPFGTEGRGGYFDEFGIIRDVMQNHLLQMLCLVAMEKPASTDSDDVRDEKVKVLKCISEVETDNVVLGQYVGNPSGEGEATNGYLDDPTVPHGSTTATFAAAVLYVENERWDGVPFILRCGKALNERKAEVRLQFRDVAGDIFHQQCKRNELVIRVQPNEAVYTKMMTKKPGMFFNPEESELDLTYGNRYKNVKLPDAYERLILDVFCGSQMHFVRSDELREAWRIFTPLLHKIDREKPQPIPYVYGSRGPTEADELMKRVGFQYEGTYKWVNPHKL

As to `C[C@]12CC[C@H](O)CC1=CC[C@@H]1[C@@H]2CC[C@]2(C)C(=O)CC[C@@H]12` [DHEA], the IC50 in assay [1] worked out at 9.2 ± 3.5 µM.
A word on the inhibition: it is the percentage by which the read-out fell short of the control. Read a high inhibition as strong suppression. As for `N#Cc1cc(Nc2ncc3c(n2)CCCCC3=O)cs1` [G6PDi-1], the inhibition at 100 µM in assay [2] came out at 15%.
